# Like-named read-outs stand apart in the source and are kept apart here.
# Assay type: physicochemical
# Conditions: for % assay/degs / Total degs / pH: T = 0
# Description: For each condition, samples were staged at ambient and refrigerated conditions. Samples were analyzed for % assay/degs, appearance, reconstitution time, pH, and compared to T=0. The structures of the key impurities/metabolites are shown below.
structure (smiles),measurement,setting,value
"CCC(CC)COC(=O)[C@H](C)N[P@](=O)(OC[C@H]1O[C@@](C#N)(c2ccc3c(N)ncnn23)[C@H](O)[C@@H]1O)Oc1ccccc1 [Formula Ia, (S)-2-ethylbutyl 2-(((S)-(((2R,3S,4R,5R)-5-(4-aminopyrrolo[2,1-f][1,2,4]triazin-7-yl)-5-cyano-3,4-dihydroxytetrahydrofuran-2-yl)methoxy)(phenoxy)phosphoryl)amino)propanoate]","% assay/degs, difference from T = 0","pH 3.5, 2-8° C., 8 h",0.3%
same,"Total degs, difference from T = 0","pH 3.5, 2-8° C., 8 h",0.0%
same,"pH, difference from T = 0","pH 3.5, 2-8° C., 8 h",0.0
same,"% assay/degs, difference from T = 0","pH 3.5, 2-8° C., 24 h",0.7%
same,"Total degs, difference from T = 0","pH 3.5, 2-8° C., 24 h",0.0%
same,"pH, difference from T = 0","pH 3.5, 2-8° C., 24 h",−0.1
same,"% assay/degs, difference from T = 0","pH 3.5, 2-8° C., 48 h",0.5%
same,"Total degs, difference from T = 0","pH 3.5, 2-8° C., 48 h",0.0%
same,"pH, difference from T = 0","pH 3.5, 2-8° C., 48 h",0.0
same,"% assay/degs, difference from T = 0","pH 3.5, 2-8° C., 72 h",0.7%
same,"Total degs, difference from T = 0","pH 3.5, 2-8° C., 72 h",0.0%
same,"pH, difference from T = 0","pH 3.5, 2-8° C., 72 h",−0.1
same,"% assay/degs, difference from T = 0","pH 3.5, 2-8° C., 96 h",0.2%
same,"Total degs, difference from T = 0","pH 3.5, 2-8° C., 96 h",0.0%
same,"pH, difference from T = 0","pH 3.5, 2-8° C., 96 h",0.0
same,"% assay/degs, difference from T = 0","pH 3.5, 2-8° C., 168 h",0.6%
same,"Total degs, difference from T = 0","pH 3.5, 2-8° C., 168 h",0.0%
same,"pH, difference from T = 0","pH 3.5, 2-8° C., 168 h",0.0
same,"% assay/degs, difference from T = 0","pH 3.5, Ambient, 2 h",0.6%
same,"Total degs, difference from T = 0","pH 3.5, Ambient, 2 h",0.0%
same,"pH, difference from T = 0","pH 3.5, Ambient, 2 h",0.0
same,"% assay/degs, difference from T = 0","pH 3.5, Ambient, 8 h",0.2%
same,"Total degs, difference from T = 0","pH 3.5, Ambient, 8 h",0.0%
same,"pH, difference from T = 0","pH 3.5, Ambient, 8 h",0.0
same,"% assay/degs, difference from T = 0","pH 3.5, Ambient, 24 h",0.6%
same,"Total degs, difference from T = 0","pH 3.5, Ambient, 24 h",0.0%
same,"pH, difference from T = 0","pH 3.5, Ambient, 24 h",0.0
same,"% assay/degs, difference from T = 0","pH 3.5, Ambient, 48 h",0.3%
same,"Total degs, difference from T = 0","pH 3.5, Ambient, 48 h",0.1%
same,"pH, difference from T = 0","pH 3.5, Ambient, 48 h",0.0
same,"% assay/degs, difference from T = 0","pH 3.5, Ambient, 72 h",0.2%
same,"Total degs, difference from T = 0","pH 3.5, Ambient, 72 h",0.1%
same,"pH, difference from T = 0","pH 3.5, Ambient, 72 h",−0.1
same,"% assay/degs, difference from T = 0","pH 3.5, Ambient, 96 h",0.0%
same,"Total degs, difference from T = 0","pH 3.5, Ambient, 96 h",0.1%
same,"pH, difference from T = 0","pH 3.5, Ambient, 96 h",0.0
same,"% assay/degs, difference from T = 0","pH 3.5, Ambient, 168 h",0.2%
same,"Total degs, difference from T = 0","pH 3.5, Ambient, 168 h",0.2%
same,"pH, difference from T = 0","pH 3.5, Ambient, 168 h",0.0
same,% assay/degs,pH 3.5,99.1%
same,Total degs,pH 3.5,0.1%
same,pH,pH 3.5,3.5
same,"% assay/degs, difference from T = 0","pH 3.8, 2-8° C., 7.2 h",−0.2%
same,"Total degs, difference from T = 0","pH 3.8, 2-8° C., 7.2 h",0.0%
same,"pH, difference from T = 0","pH 3.8, 2-8° C., 7.2 h",−0.1
same,"% assay/degs, difference from T = 0","pH 3.8, 2-8° C., 24 h",0.3%
same,"Total degs, difference from T = 0","pH 3.8, 2-8° C., 24 h",0.0%
same,"pH, difference from T = 0","pH 3.8, 2-8° C., 24 h",0.0
same,"% assay/degs, difference from T = 0","pH 3.8, 2-8° C., 96 h",0.1%
same,"Total degs, difference from T = 0","pH 3.8, 2-8° C., 96 h",0.0%
same,"pH, difference from T = 0","pH 3.8, 2-8° C., 96 h",−0.1
same,"% assay/degs, difference from T = 0","pH 3.8, 2-8° C., 168 h",0.1%
same,"Total degs, difference from T = 0","pH 3.8, 2-8° C., 168 h",0.0%
same,"pH, difference from T = 0","pH 3.8, 2-8° C., 168 h",−0.1
same,"% assay/degs, difference from T = 0","pH 3.8, Ambient, 7.2 h",0.0%
same,"Total degs, difference from T = 0","pH 3.8, Ambient, 7.2 h",0.0%
same,"pH, difference from T = 0","pH 3.8, Ambient, 7.2 h",0.0
same,"% assay/degs, difference from T = 0","pH 3.8, Ambient, 24 h",0.4%
same,"Total degs, difference from T = 0","pH 3.8, Ambient, 24 h",0.0%
same,"pH, difference from T = 0","pH 3.8, Ambient, 24 h",0.0
same,"% assay/degs, difference from T = 0","pH 3.8, Ambient, 96 h",0.0%
same,"Total degs, difference from T = 0","pH 3.8, Ambient, 96 h",0.1%
same,"pH, difference from T = 0","pH 3.8, Ambient, 96 h",−0.1
same,"% assay/degs, difference from T = 0","pH 3.8, Ambient, 168 h",0.0%
same,"Total degs, difference from T = 0","pH 3.8, Ambient, 168 h",0.1%
same,"pH, difference from T = 0","pH 3.8, Ambient, 168 h",−0.1
same,% assay/degs,pH 3.8,98.7%
same,Total degs,pH 3.8,0.1%
same,pH,pH 3.8,3.8
same,"% assay/degs, difference from T = 0","pH 4.0, 2-8° C., 7.2 h",0.0%
same,"Total degs, difference from T = 0","pH 4.0, 2-8° C., 7.2 h",0.0%
same,"pH, difference from T = 0","pH 4.0, 2-8° C., 7.2 h",0.0
same,"% assay/degs, difference from T = 0","pH 4.0, 2-8° C., 24 h",0.3%
same,"Total degs, difference from T = 0","pH 4.0, 2-8° C., 24 h",0.0%
same,"pH, difference from T = 0","pH 4.0, 2-8° C., 24 h",0.0
same,"% assay/degs, difference from T = 0","pH 4.0, 2-8° C., 96 h",0.2%
same,"Total degs, difference from T = 0","pH 4.0, 2-8° C., 96 h",0.0%
same,"pH, difference from T = 0","pH 4.0, 2-8° C., 96 h",0.0
same,"% assay/degs, difference from T = 0","pH 4.0, 2-8° C., 168 h",0.6%
same,"Total degs, difference from T = 0","pH 4.0, 2-8° C., 168 h",0.0%
same,"pH, difference from T = 0","pH 4.0, 2-8° C., 168 h",−0.1
same,"% assay/degs, difference from T = 0","pH 4.0, Ambient, 7.2 h",0.3%
same,"Total degs, difference from T = 0","pH 4.0, Ambient, 7.2 h",0.0%
same,"pH, difference from T = 0","pH 4.0, Ambient, 7.2 h",0.0
same,"% assay/degs, difference from T = 0","pH 4.0, Ambient, 24 h",0.3%
same,"Total degs, difference from T = 0","pH 4.0, Ambient, 24 h",0.0%
same,"pH, difference from T = 0","pH 4.0, Ambient, 24 h",0.0
same,"% assay/degs, difference from T = 0","pH 4.0, Ambient, 96 h",0.0%
same,"Total degs, difference from T = 0","pH 4.0, Ambient, 96 h",0.1%
same,"pH, difference from T = 0","pH 4.0, Ambient, 96 h",0.0
same,"% assay/degs, difference from T = 0","pH 4.0, Ambient, 168 h",−0.2%
same,"Total degs, difference from T = 0","pH 4.0, Ambient, 168 h",0.1%
same,"pH, difference from T = 0","pH 4.0, Ambient, 168 h",−0.1
same,% assay/degs,pH 4.0,98.6%
same,Total degs,pH 4.0,0.1%
same,pH,pH 4.0,4.0
